Key:
α7-nAChRs [1] = target: T1, α7-nAChRs (Rattus norvegicus, UniProt Q05941); assay: Binding test at α7-nAChRs
α7-nAChRs [2] = target: T1, α7-nAChRs; assay: Binding test at α7*-nAChRs; conditions: endogenous receptors prepared from rat forebrain
α2β2 = α2β2 (Rattus norvegicus, UniProt P12389+P12390); assay: [3H]epibatidine competition binding, rat α2β2 nAChR; conditions: read-out: Ki α2β2, ± SEM
BALB/cJ male mice = assay: Mouse forced swim test; conditions: vs vehicle
human α7-nAChRs = conditions: read-out: Ki human α7-nAChRs; cited from earlier work
[3] = 5, 10, and 30 mg/kg ip, 30 min before 6 min trial

## OCCc1cc(-c2cncc(OC[C@@H]3CCN3)c2)on1 [Compound 13, 2-[5-[5-((S)Azetidin-2-ylmethoxy)-3-pyridinyl]-3-isoxazolyl]ethanol]
α7-nAChRs [1]
  activity at α7-nAChRs: no activity
α7-nAChRs [2]
  activity at α7*-nAChRs: no activity

## c1ncc(-c2cc(CCN3CCOCC3)no2)cc1OC[C@@H]1CCCN1 [Compound 28, 4-[2-[5-[5-(2(S)-Pyrrolidinylmethoxy)-3-pyridinyl]-3-isoxazolyl]ethyl]morpholine]
α2β2
  Ki: 74 ± 13 nM

## CCc1cc(-c2cncc(OC[C@@H]3CCN3)c2)on1 [Compound 38, 3-(2(S)-Azetidinylmethoxy)-5-(3-ethyl-5-isoxazolyl)pyridine]
α7-nAChRs [1]
  activity at α7-nAChRs: no activity
BALB/cJ male mice; 1, 3, 5, 10, and 30 mg/kg ip, 30 min before 6 min trial
  immobility in the mouse forced swim test: reduced immobility
α7-nAChRs [2]
  activity at α7*-nAChRs: no activity

## FCCCc1cc(-c2cncc(OC[C@@H]3CCN3)c2)on1 [Compound 26, 3-(2(S)-Azetidinylmethoxy)-5-[3-(3-fluoropropyl)-5-isoxazolyl]pyridine]
BALB/cJ male mice; [3]
  immobility in the mouse forced swim test: reduced immobility

## c1cncc(OC[C@@H]2CCN2)c1 [Compound A-85380, 3-(2(S)-azetidinylmethoxy) pyridine]
Human α7-nAChRs
  Ki: 148 nM

## CN[C@H]1CC[C@@H](c2ccc(Cl)c(Cl)c2)c2ccccc21 [sertraline, reference compound]
BALB/cJ male mice; 20 mg/kg ip, positive control
  immobility in the mouse forced swim test: expected decrease in immobility

## FC(F)CCc1cc(-c2cncc(OC[C@@H]3CCN3)c2)on1 [Compound 25, 3-(2(S)-Azetidinylmethoxy)-5-[3-(3,3-difluoropropyl)-5-isoxazolyl]pyridine]
α7-nAChRs [1]
  activity at α7-nAChRs: no activity
BALB/cJ male mice; [3]
  immobility in the mouse forced swim test: reduced immobility
α7-nAChRs [2]
  activity at α7*-nAChRs: no activity

## c1ncc(-c2cc(CCN3CCOCC3)no2)cc1OC[C@@H]1CCN1 [Compound 27, 4-[2-[5-[5-(2(S)-Azetidinylmethoxy)-3-pyridinyl]-3-isoxazolyl]ethyl]morpholine]
α2β2
  Ki: 12.3 ± 2.1 nM
